Experimental findings from patent US11896685B2, “Core-shell network structure comprising biopolymer and composition comprising same” (AMOREPACIFIC CORPORATION, priority 2018, dated 2024) are described below.

In this assay the test system is human keratinocytes (HaCaT). Description: Scratch wound healing (skin regeneration) test, time-lapse microscopy. The assay is classed as cell-based. The settings on record: after 48 hours, scratched HaCaT. The method, then:
First, human keratinocytes (HaCaT) purchased from CLS (Cat No. 300493) were seeded onto a 24-well cell culture plate at a concentration of 2.0×10^5 cells/600 μL, in DMEM (Lonza, #12-604F) containing 10% fetal bovine serum (GIBCO, #16000-044) and antibiotics (Lonza, #17-602E). After culturing in a 5% CO2 incubator at 37° C. for 24 hours and replacing the medium with DMEM containing 1% fetal bovine serum, the cells were cultured further for 16 hours. After the cells were filled on the culture plate, the cells were damaged by applying a linear scratch using a scratcher (SPL, #SPL201925) and then washed twice. Core-shell network solutions comprising 0.005 wt %, 0.25 wt %, 0.5 wt % or 1 wt % of the core-shell network structure based on the total weight of the solution, were prepared in the same manner as in Example 3 (Examples 4-7). […]
The negative control group, the positive control group and the groups treated with the core-shell network structure at different concentrations were placed on a time-lapse microscope (JuLI™ Stage, NanoEnT) stage in a CO2 incubator and each well was imaged for 48 hours with 1-hour intervals. Then, wound healing area (%) was determined from the acquired images using a software analysis tool (Wound Healing tool).

Consider madecassoside, for which the “wound healing area as compared to the negative control group” value is listed as 1.37 times. The wound healing area (negative control 30.06%) amounted to 41.25%.
